Assay results as given in patent publication US20150209342A1, “TOPICAL RETINOID FORMULATIONS, PROCESSES FOR MAKING AND METHODS OF USE” (Allergan, Inc., priority 2014, published 2015).
In brackets after ≈: the same amount, converted by molar mass.

Experiment: Tazarotene solubility in water, glycerin, and 70% glycerin solution
Assay type: physicochemical

solubility (70% glycerin solution, aqueous with cosolvent or surfactant or cyclodextrin, 70% Glycerin, 5 °C): 0.27 µg/mL (≈ 0.768 µM)
solubility (70% glycerin solution, aqueous with cosolvent or surfactant or cyclodextrin, 70% Glycerin, 25 °C): 0.68 µg/mL (≈ 1.93 µM)
solubility (70% glycerin solution, aqueous with cosolvent or surfactant or cyclodextrin, 70% Glycerin, 40 °C): 4.43 µg/mL (≈ 12.6 µM)
solubility (glycerin, 5 °C, organic solvent or mixture): 72.6 µg/mL (≈ 207 µM)
solubility (glycerin, 25 °C, organic solvent or mixture): 34.7 µg/mL (≈ 98.7 µM)
solubility (glycerin, 40 °C, organic solvent or mixture): 527 µg/mL (≈ 1500 µM)
solubility of tazarotene in glycerin (in words): low solubility
solubility (water, 5 °C): 0.07 µg/mL (≈ 0.199 µM)
solubility (water, 25 °C): 0.04 µg/mL (≈ 0.114 µM)
solubility (water, 40 °C): 1.7 µg/mL (≈ 4.84 µM)
SMILES: CCOC(=O)c1ccc(C#Cc2ccc3c(c2)C(C)(C)CCS3)nc1 [Tazarotene]
